Literature values, collected in patent publication US20240207206A1, “Improved Topical Composition of Colchicine” (Zenvision Pharma LLP, priority 2019, published 2024).

Conditions: in water

Question: For `COc1cc2c(c(OC)c1OC)-c1ccc(OC)c(=O)cc1[C@@H](NC(C)=O)CC2` [Colchicine, (S)N-(5,6,7,9-tetrahydro-1,2,3, 10-tetramethoxy-9-oxobenzo[alpha]heptalen-7-yl) acetamide], which Solubility is on record?
Answer: Its Solubility is “soluble in water”.
